For one compound, IC50 results are on record in ChEMBL document CHEMBL5729738, “Inhibitors of RAF kinases” (2023).

In the experiment the target is RAF proto-oncogene serine/threonine-protein kinase (Homo sapiens, UniProt P04049). Put plainly: Kinase Assay: Protein kinase assay: Assay platform was used to measure kinase/inhibitor interactions as described previously (Anastassiadis et al., 2011). In brief, for each reaction, kinase and substrate were mixed in a buffer containing 20 mM HEPES (pH 7.5), 10 mM MgCl2, 1 mM EGTA, 0.02% Brij35, 0.02 mg/mL BSA, 0.1 mM Na3VO4, 2 mM DTT, and 1% DMSO. All compounds were solubilized in DMSO. Compounds were then added to each reaction mixture via acoustic dispense using an ECHO 550 nanoliter dispenser. For human RAF1 testing, human MEK1 (K97R) was used as a substrate at a concentration of 3 micromolar, with a final ATP concentration of 10 micromolar. For human BRAF testing, human MEK1 (K97R) was used as a substrate at 1 micromolar concentration, with a final ATP concentration of 25 micromolar. […] After a 20-min incubation, ATP (Sigma-Aldrich, St. Louis, Mo. 63178) and [g33P] ATP (specific activity 10 microCi/microliter) purchased at PerkinElmer (Boston, Mass., 02118 Cat #BLU 003H250UC) were added at a final total concentration of 10 mM. Reactions were carried out at room temperature for 2 hr and spotted onto P81 ion exchange cellulose chromatography paper (Reaction Biology). Filter paper was washed in 0.75% phosphoric acid to remove unincorporated ATP. The percent remaining kinase activity relative to a vehicle-containing (DMSO) kinase reaction was calculated for each kinase/inhibitor pair. […].
Sequence of RAF proto-oncogene serine/threonine-protein kinase (P04049 whole entry): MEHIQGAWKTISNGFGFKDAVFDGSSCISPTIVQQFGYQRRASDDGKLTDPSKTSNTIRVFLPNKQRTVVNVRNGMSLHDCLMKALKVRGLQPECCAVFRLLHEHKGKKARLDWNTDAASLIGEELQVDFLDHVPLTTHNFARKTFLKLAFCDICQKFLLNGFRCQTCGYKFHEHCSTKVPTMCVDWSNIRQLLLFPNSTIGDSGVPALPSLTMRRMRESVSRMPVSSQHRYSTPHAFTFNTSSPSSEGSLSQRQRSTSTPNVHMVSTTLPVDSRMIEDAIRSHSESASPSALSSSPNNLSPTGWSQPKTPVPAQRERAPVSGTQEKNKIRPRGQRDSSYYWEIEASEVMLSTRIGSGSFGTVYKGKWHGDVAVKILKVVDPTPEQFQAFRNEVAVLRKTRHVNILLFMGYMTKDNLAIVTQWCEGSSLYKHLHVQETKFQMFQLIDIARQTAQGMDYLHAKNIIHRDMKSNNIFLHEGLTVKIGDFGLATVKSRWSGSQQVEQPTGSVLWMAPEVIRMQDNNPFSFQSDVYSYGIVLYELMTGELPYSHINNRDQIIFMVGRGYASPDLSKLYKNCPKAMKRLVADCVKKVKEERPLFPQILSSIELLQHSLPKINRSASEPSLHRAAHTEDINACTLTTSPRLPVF

Regarding `CNc1ncc2cc(-c3cc(NC(=O)N4CC[C@H](C(F)(F)F)C4)c(F)cc3C)c(C)nc2n1`, the IC50 was under 10 nM.
